Laboratory results taken from patent publication US8183283B2, “Dendrite elongation inhibitor for melanocyte and skin preparation for external use containing the same” (Pola Chemical Industries Inc., priority 2002, dated 2012).

Test system: Normal human melanocyte
Assay: Inhibitory action on the elongation of dendrites using human melanocytes
Type: cell-based
Excerpt: According to a method shown below, inhibitory action on the elongation of dendrites was examined using human melanocytes. (Reagent, etc.) Cells, basal media, and amplification additives were purchased from KURABO INDUSTRIES LTD.
(Cell) Normal human melanocyte
(Medium) Basal medium (Medium 1545) supplemented with reagents described below
(Reagent) Amplification additive: bovine pituitary extract (BPE) (final concentration of 0.4% v/v in the medium), fetal bovine serum (FBS) (final concentration of 0.5% v/v in the medium), human recombinant basic fibroblast growth factor (rFGF-B) (final concentration of 3 ng/ml in the medium), hydrocortisone (final concentration of 0.18 μg/ml in the medium), insulin (final concentration 5 μg/ml in the medium), transferrin (final concentration of 5 μg/ml in the medium), phorbol 12-myristate 13-acetate (PMA) (final concentration of 10 ng/ml in the medium), heparin (final concentration of 3 μg/ml in the medium), and PSA solution (mixture solution of penicillin concentration of 50,000 Unit/ml, streptomycin concentration of 50 μg/ml, and amphotericin B concentration of 12.5 μg/ml; 1-ml addition with respect to 500 ml of the medium) (Method) […]

COc1ccc(-c2oc3cc(O)c(OC)c(O)c3c(=O)c2OC)cc1O [Centaureidin, 5,7-dihydroxy-3,6-dimethoxy-2-(5-hydroxy-4-methoxyphenyl)-4H-1-benzopyran-4-on]
Inhibition against the elongation of dendrites (in words) (24 hours after addition of the sample solution, versus control): elongation is inhibited | Length of dendrite (sample solution with 100 μg/ml Centaureidin, 50 μl added to 200 μl medium, observed 24 hours after addition, growth factor-supplemented medium): 26 ± 8 μm
